Like-named read-outs stand apart in the source and are kept apart here.
Key:
[1] = test system: anaesthetized dog; assay: Antiangorous activity on anaesthetized dog: consumption of oxygen in the left ventricule and cardiac effort (KATZ's index); format: in vivo; conditions: for inhibition in vivo at 2.5 mg/kg / inhibition in vivo at 0.625 mg/kg / inhibition in vivo at 2.3 mg/kg / inhibition in vivo at […] / inhibition in vivo at 2.4 mg/kg / inhibition in vivo at 1.25 mg/kg: Canis lupus familiaris, iv
Summary of the method: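 Katz index taken as mean arterial pressure multiplied by ECG (D2) heart rate, and myocardial O2 use as coronary sinus flow via modified Morawitz cannula times coronary arteriovenous O2 difference. Animals: pentobarbital-anaesthetized dogs (30 mg/kg i.v.), test compounds infused slowly intravenously.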

[2] = in vivo; conditions: iv; for LD50: read-out: Toxicity: LD50; for mortality: read-out: Toxicity (Mortality)
Source text: *LD50 or percentage of mortality which is given between brackets

[3] = 2.5 mg/kg i.v. slow perfusion, read-out: Diminution in consumption of O2
[4] = 2.5 mg/kg i.v. slow perfusion, read-out: Diminution in the cardiac effort (IK)
[5] = 0.625 mg/kg i.v. slow perfusion
[6] = 0.625 mg/kg i.v. slow perfusion, read-out: Diminution in consumption of O2
[7] = 0.625 mg/kg i.v. slow perfusion, read-out: Diminution in the cardiac effort (IK)

In the case of `COc1cc(/C=C/C(=O)N2CCN(CC(O)COc3cc(C(C)=O)cc4c3OCCO4)CC2)cc(OC)c1OC` (stereo not shown) [770 590], the “Diminution in consumption of O2: in time” value ([1]; 2.5 mg/kg i.v. slow perfusion) is reported as 45 min, the “Diminution in the cardiac effort (IK): in time” value (“Diminution in the cardiac effort” for short) ([1]; 2.5 mg/kg i.v. slow perfusion) is reported as 45 min and the inhibition in vivo at 2.5 mg/kg [1, 3] is reported as 60%. It also gave an inhibition in vivo at 2.5 mg/kg [1, 4] of 33% and an LD50 [2] of 290 mg/kg.
With `COc1cc(/C=C/C(=O)N2CCN(CC(O)COc3ccc(O)c4c3OCCO4)CC2)cc(OC)c1OC` (stereo not shown) [780 120, 1-[3-(4-hydroxy-2,3-ethylenedioxy)phenoxy-2-hydroxy]propyl-4-(3,4,5-trimethoxy-cinnamoyl)piperazine, hydrated chlorhydrate] the “Diminution in consumption of O2: in time” value ([1]; 2.5 mg/kg i.v. slow perfusion) was 30 min, the “Diminution in the cardiac effort” value ([1]; 2.5 mg/kg i.v. slow perfusion) was 15 min and the inhibition in vivo at 2.5 mg/kg [1, 3] was 65%. It also gave an inhibition in vivo at 2.5 mg/kg [1, 4] of 29% and an LD50 [2] of 340 mg/kg.
For `COc1cc(/C=C/C(=O)N2CCN(CC(O)COc3ccc(NC(=O)C(C)C)c4c3OCCO4)CC2)cc(OC)c1OC` (stereo not shown) [770 692], the “Diminution in consumption of O2: in time” value [1, 5] was 15 min, the “Diminution in the cardiac effort” value [1, 5] was 30 min and the inhibition in vivo at 0.625 mg/kg [1, 6] was 60%. It also gave an inhibition in vivo at 0.625 mg/kg [1, 7] of 45% and a mortality ([2]; 200 mg/kg i.v.) of 60%.
In the case of `COc1cc(/C=C/C(=O)N2CCN(CC(O)COc3ccc(C(C)=O)c4c3OCCO4)CC2)cc(OC)c1OC(C)C` (stereo not shown) [770 727], the “Diminution in consumption of O2: in time” value ([1]; 2.5 mg/kg i.v. slow perfusion) is reported as 15 min, the “Diminution in the cardiac effort” value ([1]; 2.5 mg/kg i.v. slow perfusion) is reported as 30 min and the inhibition in vivo at 2.5 mg/kg [1, 3] is reported as 57%. It also gave an inhibition in vivo at 2.5 mg/kg [1, 4] of 27% and an LD50 [2] of 130 mg/kg.
In the case of `CCOC(=O)c1ccc(OCC(O)CN2CCN(C(=O)/C=C/c3cc(OC)c(OC)c(OC)c3)CC2)cc1` (stereo not shown) [760 382], the “Diminution in consumption of O2: in time” value ([1]; 2.5 mg/kg i.v. slow perfusion) is reported as 30 min, the “Diminution in the cardiac effort” value ([1]; 2.5 mg/kg i.v. slow perfusion) is reported as 30 min and the inhibition in vivo at 2.5 mg/kg [1, 3] is reported as 40%. For the same compound, the inhibition in vivo at 2.5 mg/kg [1, 4] was 24% and the LD50 [2] was 260 mg/kg.
For `CCOC(=O)Nc1ccc(OCC(O)CN2CCN(C(=O)/C=C/c3cc(OC)c(OC)c(OC)c3)CC2)c2c1OCCO2` (stereo not shown) [770 525], the “Diminution in consumption of O2: in time” value [1, 5] was 60 min, the “Diminution in the cardiac effort” value [1, 5] was 60 min and the inhibition in vivo at 0.625 mg/kg [1, 6] was 66%. For the same compound, the inhibition in vivo at 0.625 mg/kg [1, 7] was 43% and the LD50 [2] was 325 mg/kg.
With `COc1cc(/C=C/C(=O)N2CCN(CC(O)COc3ccc(NC(C)=O)c4c3OCCCO4)CC2)cc(OC)c1OC` (stereo not shown) [780 393] the “Diminution in consumption of O2: in time” value [1, 5] was 30 min, the “Diminution in the cardiac effort” value [1, 5] was 30 min and the inhibition in vivo at 0.625 mg/kg [1, 6] was 24%. For the same compound, the inhibition in vivo at 0.625 mg/kg [1, 7] was 45% and the mortality ([2]; 400 mg/kg i.v.) was 10%.
With `COc1cc(/C=C/C(=O)N2CCN(CC(O)COc3c(OC)cccc3OC)CC2)cc(OC)c1OC` (stereo not shown) [760 580] the “Diminution in consumption of O2: in time” value ([1]; 2.3 mg/kg i.v. slow perfusion) was 30 min, the “Diminution in the cardiac effort” value ([1]; 2.3 mg/kg i.v. slow perfusion) was 15 min and the inhibition in vivo at 2.3 mg/kg ([1]; 2.3 mg/kg i.v. slow perfusion, read-out: Diminution in consumption of O2) was 19%. For the same compound, the inhibition in vivo at 2.3 mg/kg ([1]; 2.3 mg/kg i.v. slow perfusion, read-out: Diminution in the cardiac effort (IK)) was 26% and the LD50 [2] was 294 mg/kg.
`CNC(=O)Nc1ccc(OCC(O)CN2CCN(C(=O)/C=C/c3cc(OC)c(OC)c(OC)c3)CC2)c2c1OCCO2` (stereo not shown) [770 077] gave an inhibition in vivo at […] ([1]; 0.15 mg/kg i.v. slow perfusion, read-out: Diminution in consumption of O2) of 44%, an inhibition in vivo at […] ([1]; 0.15 mg/kg i.v. slow perfusion, read-out: Diminution in the cardiac effort (IK)) of 28% and a mortality ([2]; 400 mg/kg i.v.) of 0%.
For `COc1cc(/C=C/C(=O)N2CCN(CC(O)COc3cc(OC)c(OC)c(OC)c3C(C)=O)CC2)cc(OC)c1OC` (stereo not shown) [760 781], the “Diminution in consumption of O2: in time” value ([1]; 2.4 mg/kg i.v. slow perfusion) was 90 min, the “Diminution in the cardiac effort” value ([1]; 2.4 mg/kg i.v. slow perfusion) was 45 min and the inhibition in vivo at 2.4 mg/kg ([1]; 2.4 mg/kg i.v. slow perfusion, read-out: Diminution in consumption of O2) was 70%. For the same compound, the inhibition in vivo at 2.4 mg/kg ([1]; 2.4 mg/kg i.v. slow perfusion, read-out: Diminution in the cardiac effort (IK)) was 15% and the mortality ([2]; 377 mg/kg i.v.) was 0%.
In the case of `COc1cc(/C=C/C(=O)N2CCCN(CC(O)COc3ccc(C(C)=O)c4c3OCCO4)CC2)cc(OC)c1OC` (stereo not shown) [760 622], the “Diminution in consumption of O2: in time” value ([1]; 1.25 mg/kg i.v. slow perfusion) is reported as 30 min, the “Diminution in the cardiac effort” value ([1]; 1.25 mg/kg i.v. slow perfusion) is reported as 15 min and the inhibition in vivo at 1.25 mg/kg ([1]; 1.25 mg/kg i.v. slow perfusion, read-out: Diminution in consumption of O2) is reported as 20%. It also gave an inhibition in vivo at 1.25 mg/kg ([1]; 1.25 mg/kg i.v. slow perfusion, read-out: Diminution in the cardiac effort (IK)) of 17% and a mortality ([2]; 400 mg/kg i.v.) of 40%.
With `COc1cc(/C=C/C(=O)N2CCN(CC(O)COc3ccc(C(C)=O)c4c3OCO4)CC2)cc(OC)c1OC` (stereo not shown) [780 308] the “Diminution in consumption of O2: in time” value ([1]; 2.5 mg/kg i.v. slow perfusion) was 45 min, the “Diminution in the cardiac effort” value ([1]; 2.5 mg/kg i.v. slow perfusion) was 45 min and the inhibition in vivo at 2.5 mg/kg [1, 3] was 49%. The inhibition in vivo at 2.5 mg/kg [1, 4] was 37% and the mortality ([2]; 400 mg/kg i.v.) was 10%.
`Cc1cccc(C)c1NC(=O)CN1CCN(CCCC(c2ccc(F)cc2)c2ccc(F)cc2)CC1` [LIDOFLAZINE, reference compound] gave an inhibition in vivo at […] ([1]; 1.5 mg/kg i.v. slow perfusion, read-out: Diminution in consumption of O2) of 48%, an inhibition in vivo at […] ([1]; 1.5 mg/kg i.v. slow perfusion, read-out: Diminution in the cardiac effort (IK)) of 40% and a mortality ([2]; 25 mg/kg i.v.) of 50%.
